Measured values as given in PubChem BioAssay AID256 (DTP/NCI, 2004).
Values joined by “and” are separate entries in the source; they are usually repeats but may differ in a detail not shown here. Equal values may be shown once. Toxic doses and inconclusive results are not listed. The calls were made as follows: active = survival T/C of 150% or more; inactive = T/C below 125% in these data.

System: CD2F1 mice, L1210 leukemia ip, survival T/C
Experiment: NCI In Vivo Anticancer Drug Screen. Data for tumor model L1210 Leukemia (intraperitoneal) in CD2F1 (CDF1) mice
Details: higher = longer survival
In short: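 Read-out first: treated-group measurement over vehicle-control measurement, expressed as a ratio. Animals bore a transplanted tumor line and were dosed with compound or vehicle.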

[1] = endpoint: mean survival time, dose: 100.0 mg/kg/injection, schedule: Q01DX001 (ip), vehicle: saline with Tween-80
[2] = endpoint: mean survival time, dose: 200.0 mg/kg/injection, schedule: Q01DX001 (ip), vehicle: saline with Tween-80
[3] = endpoint: mean survival time, dose: 400.0 mg/kg/injection, schedule: Q01DX001 (ip), vehicle: saline with Tween-80
[4] = endpoint: mean survival time, dose: 12.5 mg/kg/injection, schedule: Q01DX009 (ip), vehicle: saline
[5] = endpoint: mean survival time, dose: 25.0 mg/kg/injection, schedule: Q01DX009 (ip), vehicle: saline
[6] = endpoint: mean survival time, dose: 50.0 mg/kg/injection, schedule: Q01DX009 (ip), vehicle: Klucel (hydroxypropylcellulose) (HPC)
[7] = endpoint: mean survival time, dose: 50.0 mg/kg/injection, schedule: Q01DX009 (ip), vehicle: saline
[8] = endpoint: mean survival time, dose: 100.0 mg/kg/injection, schedule: Q01DX009 (ip), vehicle: Klucel (hydroxypropylcellulose) (HPC)
[9] = endpoint: mean survival time, dose: 100.0 mg/kg/injection, schedule: Q01DX009 (ip), vehicle: saline
[10] = endpoint: mean survival time, dose: 200.0 mg/kg/injection, schedule: Q01DX009 (ip), vehicle: Klucel (hydroxypropylcellulose) (HPC)
[11] = endpoint: mean survival time, dose: 100.0 mg/kg/injection, schedule: Q04DX003 (ip), vehicle: saline with Tween-80
[12] = endpoint: mean survival time, dose: 200.0 mg/kg/injection, schedule: Q04DX003 (ip), vehicle: saline with Tween-80
[13] = endpoint: mean survival time, dose: 400.0 mg/kg/injection, schedule: Q04DX003 (ip), vehicle: saline with Tween-80
[14] = endpoint: mean survival time, dose: 200.0 mg/kg/injection, schedule: Q01DX009 (ip), vehicle: saline
[15] = endpoint: mean survival time, dose: 100.0 mg/kg/injection, schedule: Q01DX009 (ip), vehicle: saline with Tween-80
[16] = endpoint: mean survival time, dose: 200.0 mg/kg/injection, schedule: Q01DX009 (ip), vehicle: saline with Tween-80
[17] = endpoint: mean survival time, dose: 50.0 mg/kg/injection, schedule: Q01DX009 (ip), vehicle: saline with Tween-80
[18] = endpoint: mean survival time, dose: 100.0 mg/kg/injection, schedule: Q01DX009 (ip), vehicle: saline sonified
[19] = endpoint: mean survival time, dose: 200.0 mg/kg/injection, schedule: Q01DX009 (ip), vehicle: saline sonified

Measured: T/C

C/C=C\C[P+](c1ccccc1)(c1ccccc1)c1ccccc1
inactive: endpoint: mean survival time, dose: 5.0 mg/kg/injection, schedule: Q01DX001 (ip), vehicle: saline with Tween-80 101 % of control | endpoint: mean survival time, dose: 5.0 mg/kg/injection, schedule: Q01DX009 (ip), vehicle: saline with Tween-80 102 % of control | endpoint: mean survival time, dose: 10.0 mg/kg/injection, schedule: Q01DX001 (ip), vehicle: saline with Tween-80 104 % of control | endpoint: mean survival time, dose: 10.0 mg/kg/injection, schedule: Q01DX009 (ip), vehicle: saline with Tween-80 102 % of control | endpoint: mean survival time, dose: 20.0 mg/kg/injection, schedule: Q01DX001 (ip), vehicle: saline with Tween-80 104 % of control | endpoint: mean survival time, dose: 20.0 mg/kg/injection, schedule: Q01DX009 (ip), vehicle: saline with Tween-80 122 % of control

Cn1c(C(=O)c2ccncc2)cc2ccccc21
inactive: [1] 103 % of control | endpoint: mean survival time, dose: 100.0 mg/kg/injection, schedule: Q04DX002 (ip), vehicle: saline with Tween-80 100 % of control | [2] 103 % of control | endpoint: mean survival time, dose: 200.0 mg/kg/injection, schedule: Q04DX002 (ip), vehicle: saline with Tween-80 100 % of control | [3] 103 % of control | endpoint: mean survival time, dose: 400.0 mg/kg/injection, schedule: Q04DX002 (ip), vehicle: saline with Tween-80 95 % of control

COc1ccc2c(c1[N+](=O)[O-])CCCCC2=O
inactive: endpoint: mean survival time, dose: 50.0 mg/kg/injection, schedule: Q01DX009 (ip), vehicle: other 100 % of control | endpoint: mean survival time, dose: 100.0 mg/kg/injection, schedule: Q01DX009 (ip), vehicle: other 92 % of control | endpoint: mean survival time, dose: 200.0 mg/kg/injection, schedule: Q01DX009 (ip), vehicle: other 100 % of control

Fc1ccc(NC(=S)SCc2ccc(Cl)c(Cl)c2)cc1F
inactive: [4] 98 % of control | endpoint: mean survival time, dose: 12.5 mg/kg/injection, schedule: Q01DX009 (ip), vehicle: suspension in saline 98 % of control | [5] 101 % of control | endpoint: mean survival time, dose: 25.0 mg/kg/injection, schedule: Q01DX009 (ip), vehicle: suspension in saline 108 % of control | [6] 112 % of control | [7] 98 % of control | endpoint: mean survival time, dose: 50.0 mg/kg/injection, schedule: Q01DX009 (ip), vehicle: suspension in saline 103 % of control | [8] 107 % of control | [9] 95 % of control | endpoint: mean survival time, dose: 100.0 mg/kg/injection, schedule: Q01DX009 (ip), vehicle: suspension in saline 104 % of control | [10] 91 % of control

CN(C)N=Nc1ccccc1
active: endpoint: mean survival time, dose: 37.5 mg/kg/injection, schedule: Q01DX009 (ip), vehicle: Klucel (hydroxypropylcellulose) (HPC) 158 % of control
inactive: endpoint: mean survival time, dose: 75.0 mg/kg/injection, schedule: Q01DX009 (ip), vehicle: Klucel (hydroxypropylcellulose) (HPC) 106 % of control

CC(CCCC1SCC2NC(=O)NC21)C(=O)O (centres undefined)
inactive: [11] 98 % of control | [12] 98 % of control | [13] 98 % of control

Cc1ccc(-c2cc(C(=O)O)c3cc(F)ccc3n2)cc1
inactive: [11] 101 % of control | [12] 95 % of control | [13] 100 % of control

COC(=O)C1C2CCC(COC(C)=O)(O2)C1C(=O)O (centres undefined)
inactive: [1] 94 % of control | [9] 96 % of control | [2] 97 % of control | [14] 98 % of control | [3] 88 % of control

ClCc1ccc(Cl)c(Cl)c1
inactive: endpoint: mean survival time, dose: 100.0 mg/kg/injection, schedule: Q04DX003 (ip), vehicle: Klucel (hydroxypropylcellulose) (HPC) 102 % of control | endpoint: mean survival time, dose: 200.0 mg/kg/injection, schedule: Q04DX003 (ip), vehicle: Klucel (hydroxypropylcellulose) (HPC) 102 % of control | endpoint: mean survival time, dose: 400.0 mg/kg/injection, schedule: Q04DX003 (ip), vehicle: Klucel (hydroxypropylcellulose) (HPC) 102 % of control

Cc1ccc(NC(=O)c2ccccc2C(=O)O)cc1C
inactive: [15] 98 % of control | [11] 100 % of control | [16] 95 % of control | [12] 101 % of control | endpoint: mean survival time, dose: 400.0 mg/kg/injection, schedule: Q01DX009 (ip), vehicle: saline with Tween-80 94 % of control | [13] 103 % of control

COC(=O)c1ccccc1-c1ccccc1C(=O)O
inactive: endpoint: mean survival time, dose: 44.0 mg/kg/injection, schedule: Q01DX001 (ip), vehicle: other 97 % of control | endpoint: mean survival time, dose: 66.0 mg/kg/injection, schedule: Q01DX001 (ip), vehicle: other 97 % of control | endpoint: mean survival time, dose: 100.0 mg/kg/injection, schedule: Q01DX001 (ip), vehicle: other 103 % of control | endpoint: mean survival time, dose: 150.0 mg/kg/injection, schedule: Q01DX001 (ip), vehicle: other 100 % of control

c1cnc2ncncc2n1
inactive: endpoint: mean survival time, dose: 12.5 mg/kg/injection, schedule: Q01DX009 (ip), vehicle: saline with Tween-80 94 % of control and 102 % of control | endpoint: mean survival time, dose: 25.0 mg/kg/injection, schedule: Q01DX009 (ip), vehicle: saline with Tween-80 94 % of control and 102 % of control | [17] 105 % of control and 106 % of control | [15] 94 % of control and 104 % of control | [16] 96 % of control and 110 % of control

CC(=O)Nc1ccc(S(=O)(=O)/N=C2\C=CC(=O)c3ccccc32)cc1
inactive: [17] 98 % of control | [1] 104 % of control | [15] 100 % of control | [2] 111 % of control

O=C(O)CC1(O)CCCCC1c1ccccc1 (centres undefined)
inactive: [11] 104 % of control | [12] 105 % of control | [13] 88 % of control

CSc1nc(NC2OC(CO)C(O)C(O)C2O)cc(=O)[nH]1 (centres undefined)
inactive: endpoint: median survival time, dose: 12.5 mg/kg/injection, schedule: Q01DX005 (ip), vehicle: saline 102 % of control | endpoint: median survival time, dose: 25.0 mg/kg/injection, schedule: Q01DX005 (ip), vehicle: saline 100 % of control | endpoint: median survival time, dose: 50.0 mg/kg/injection, schedule: Q01DX005 (ip), vehicle: saline 100 % of control | endpoint: median survival time, dose: 100.0 mg/kg/injection, schedule: Q01DX005 (ip), vehicle: saline 100 % of control | endpoint: median survival time, dose: 200.0 mg/kg/injection, schedule: Q01DX005 (ip), vehicle: saline 102 % of control

CCOC(=O)CCC(NC(=O)c1cccc(N(C)C=O)c1)C(=O)OCC (centres undefined)
inactive: [1] 110 % of control | [11] 100 % of control | [2] 110 % of control | [12] 100 % of control | [3] 113 % of control | [13] 98 % of control

CNC(=O)Oc1cccc(NC(=O)OCCC(C)C)c1
inactive: [1] 96 % of control | [2] 93 % of control | [3] 96 % of control

Cc1cc(OCC(=O)O)ccc1Cl
inactive: [6] 100 % of control | [8] 104 % of control | [10] 104 % of control

CS(=O)(=O)C(Br)S(C)(=O)=O
inactive: endpoint: mean survival time, dose: 3.13 mg/kg/injection, schedule: Q01DX009 (ip), vehicle: saline 102 % of control | endpoint: mean survival time, dose: 6.25 mg/kg/injection, schedule: Q01DX009 (ip), vehicle: saline 102 % of control | endpoint: mean survival time, dose: 6.25 mg/kg/injection, schedule: Q04DX003 (ip), vehicle: saline 96 % of control | [4] 101 % of control | endpoint: mean survival time, dose: 12.5 mg/kg/injection, schedule: Q04DX003 (ip), vehicle: saline 93 % of control | endpoint: mean survival time, dose: 25.0 mg/kg/injection, schedule: Q04DX003 (ip), vehicle: saline 109 % of control

NC(N)=N/N=C(\c1ccc(C(F)(F)F)cc1)c1ccc(Cl)c(Cl)c1
inactive: endpoint: mean survival time, dose: 75.0 mg/kg/injection, schedule: Q01DX001 (ip), vehicle: saline 91 % of control

Cc1ccc(NC(=O)Oc2cc(C)c(Cl)cc2C)cc1C
inactive: [17] 100 % of control | [15] 100 % of control | [16] 92 % of control

ClC1(Cl)C2CCCCC21 (centres undefined)
inactive: endpoint: mean survival time, dose: 50.0 mg/kg/injection, schedule: Q01DX009 (ip), vehicle: saline sonified 98 % of control | [18] 98 % of control | [11] 98 % of control | [19] 97 % of control | [12] 97 % of control

O=C1c2ccccc2C(=O)c2c(O)c(Cc3ccccn3)cc(O)c21
inactive: [18] 96 % of control | [19] 94 % of control | endpoint: mean survival time, dose: 400.0 mg/kg/injection, schedule: Q01DX009 (ip), vehicle: saline sonified 98 % of control

OCC(F)(F)F
inactive: [9] 123 % of control | [11] 108 % of control | [12] 110 % of control | [13] 115 % of control

NCCc1cc(O)c(O)c(O)c1
inactive: [4] 96 % of control and 100 % of control | [5] 100 % of control and 102 % of control | [7] 103 % of control and 106 % of control | [9] 122 % of control | [14] 119 % of control and 124 % of control | endpoint: mean survival time, dose: 400.0 mg/kg/injection, schedule: Q01DX009 (ip), vehicle: saline 119 % of control
